Several values for one entry are separate records, joined by “and”; a condition that tells them apart may be missing. Identical values can stand only once.
Assays:
[1] = system: panel of 296 kinases, including other PLK members; conditions: cited from earlier work
[2] = system: cell lines, both from solid as well as hematologic tumors; conditions: large number of cell lines; cited from earlier work
[3] = system: patients with advanced/metastatic solid tumors; conditions: cited from earlier work
CYP1A2 = biological target: T1, CYP1A2 (Homo sapiens, UniProt P05177); conditions: human liver microsomes; cited from earlier work
T1 construct: was investigated using human liver microsomes; from tissue; host or cells: human liver microsomes
T1 sequence (P05177 1-516): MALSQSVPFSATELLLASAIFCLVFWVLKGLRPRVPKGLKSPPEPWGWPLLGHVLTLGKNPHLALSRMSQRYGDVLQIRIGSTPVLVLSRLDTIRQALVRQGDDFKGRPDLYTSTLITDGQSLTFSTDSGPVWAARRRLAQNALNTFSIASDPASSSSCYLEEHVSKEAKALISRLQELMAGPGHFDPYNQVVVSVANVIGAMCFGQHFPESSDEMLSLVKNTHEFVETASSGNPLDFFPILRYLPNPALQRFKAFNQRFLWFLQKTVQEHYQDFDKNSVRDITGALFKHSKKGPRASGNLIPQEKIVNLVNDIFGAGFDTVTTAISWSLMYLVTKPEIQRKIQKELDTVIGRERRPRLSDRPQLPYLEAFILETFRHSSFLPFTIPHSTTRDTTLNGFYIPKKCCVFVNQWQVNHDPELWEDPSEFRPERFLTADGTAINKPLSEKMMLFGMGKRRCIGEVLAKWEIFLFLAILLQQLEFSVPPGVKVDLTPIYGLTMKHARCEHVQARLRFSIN

[4] = system: RAS^WT CRC patient-derived xenograft (PDX) models; experiment: Example 1: antitumor activity in RAS^WT CRC PDX models, 18 days; format: in vivo, nude mice
Procedure: Twenty RAS^WT CRC PDXs were selected and engrafted in nude mice. […] Tumor volume change from baseline (TVC) was calculated as 100%×(Vt−Vo)/Vo and tumor growth inhibition (TGI) as 100%×(TVCcontrol−TVCtreated)/TVCcontrol. Tumor regression was defined as TVCD18<0 and tumor stasis […].

[5] = system: RAS^WT colorectal cancer patient derived xenograft (PDX) models; experiment: Example 2: antitumor activity in RAS^WT CRC PDX models, 18-19 days; format: in vivo, mice
Procedure: Tumor volumes (TV) were measured twice a week, and % tumor volume change (TVC) from baseline was calculated as follows: (TVi/TV0−1)×100. Tumor stasis defined as TVC between 0 and 20%, and tumor regression as TVC less than 0% at last measurement. Results are presented as mean±SEM.

panel of 63 kinases = conditions: low or no activity; cited from earlier work
[6] = rodent and nonrodent species; cited from earlier work
[7] = mice; cited from earlier work
AML cell lines = conditions: cited from earlier work
[8] = 6 PDXs with acquired resistance to cetuximab
[9] = 7 PDXs with intrinsic resistance to cetuximab

Structure (SMILES): CN1CCN(c2ccc(OC(F)(F)F)c(Nc3ncc4c(n3)-c3c(c(C(N)=O)nn3CCO)CC4)c2)CC1 [onvansertib, 1-(2-hydroxyethyl)-8-{[5-(4-methylpiperazin-1-yl)-2-(trifluoromethoxy)phenyl]amino}-4,5-dihydro-1H-pyrazolo[4,3-h]quinazoline-3-carboxamide]
- Specificity for PLK1 among a panel of 296 kinases [1]: high specificity
- Activity in proliferation assays [2]: low nanomolar activity
- DLTs observed ([3]; 36 mg/m^2/day, 4 patients treated): 2 DLTs
- patients who developed DLTs ([3]; 48 mg/m^2/day): 2 of 3
- DLTs at the first 3 dose levels ([3]; 6, 12, and 24 mg/m^2/day): No DLTs
- best observed treatment response ([3]; in vivo): stable disease (SD)
- maximum tolerated dose (MTD) ([3]; oral, 5 consecutive days every 3 weeks): 24 mg/m^2/day
- recovery from hematologic toxicities ([3]; reversible toxicities): ≤ 3 weeks
- Inhibitory effects against CYP1A2 (CYP1A2): No significant inhibitory effects
- PDXs with potent anti-tumor activity (tumor regression or tumor stasis) ([4]; 20 PDXs, stasis 0≤TVCD18<100, 85%): 17 out of 20
- median TGI on Day 18 ([4]; CetuxR PDXs, IQR 74-124): 108
- median TGI on Day 18 ([4]; CetuxS PDXs, IQR 76-103): 102
- PDXs with tumor regression (TVCD18<0) ([4]; all 20 PDXs, Day 18): 11 PDXs
- PDXs with tumor stasis (0≤TVCD18<100) ([4]; all 20 PDXs, Day 18): 6 PDXs
- models with tumor growth inhibition [5, 8]: one
- models with tumor stasis or regression [5, 8]: 4/6
- models with tumor growth inhibition ([5]; 7 PDXs sensitive to cetuximab): two
- models with tumor stasis or regression ([5]; 7 PDXs sensitive to cetuximab, stasis TVC 0-20%): five and 5/7
- models with tumor growth inhibition [5, 9]: two
- models with tumor stasis or regression [5, 9]: 5/7
- models with potent antitumor activity ([5]; 13 PDX models resistant to cetuximab, 69%): 9/13
- models with tumor regression ([5]; all 20 models): 11 models
- models with tumor stasis ([5]; all 20 models, TVC between 0 and 20%): 3 models
- IC50 (panel of 63 kinases): > 500 nM
- oral bioavailability [6]: good oral bioavailability
- concentrations relevant to achieve significant anti-tumoral activity [7]: ~1 µM
- Inhibition of cell proliferation (AML cell lines): nanomolar concentrations

Source: patent US20250275978A1 (Cardiff Oncology, Inc., priority 2024, published 2025)
